Assay results published in the supplement of paper PMC10627819.

What was measured:
[1] = test system: B. subtilis 168; assay: fitness (endpoint OD595 vs no drug) (fraction); higher = more growth
In short: (§1)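 Cultures at OD595 0.01 were dispensed into 384-well plates in TSB, LB Lennox or CY and incubated at 37 °C. Every 30 min for 14 h, OD595 was read and corrected by the first reading. Fitness is the optical density at entry into stationary phase relative to the robust mean of no-drug control wells, capped at 1.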

[2] = test system: S. aureus DSM 20231; assay: as above
In short: as §1

[3] = test system: S. aureus Newman; assay: as above; conditions: first compound 0.0312 µg/mL; partner 85.5 µg/mL
In short: as §1

[4] = test system: S. pneumoniae D39V; assay: as above
In short: as §1

[5] = test system: B. subtilis 168; assay: Bliss interaction score (quartile over a dose matrix) (fitness difference); higher = more antagonism (negative = synergy)
In short: (§2)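 Values were capped at 1 after dividing OD595 at stationary-phase entry by the plate's robust no-drug mean. This ratio is fitness, and single-drug fitness was inferred from the combination data. The Bliss score is observed minus product-expected fitness, given as quartiles over technical, biological and donor/recipient replicates.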

[6] = test system: S. aureus DSM 20231; assay: as above
In short: as §2

[7] = test system: S. aureus Newman; assay: as above
In short: as §2

[8] = test system: S. pneumoniae D39V; assay: as above
In short: as §2
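Throughout, for Bliss interaction score (quartile over a dose matrix): first quartile when negative (synergy) and third quartile when positive (antagonism).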

CCC[C@@H]1C[C@@H](C(=O)N[C@@H]([C@H]2O[C@H](SC)[C@H](O)[C@@H](O)[C@H]2O)[C@H](C)Cl)N(C)C1 [Clindamycin] + CCN(CC)CCOC(=O)c1ccc(N)cc1 [Procaine]
fitness, one replicate
Conditions	first compound 0.0039 µg/mL	first compound 0.0078 µg/mL	first compound 0.015 µg/mL	first compound 0.0156 µg/mL	first compound 0.03 µg/mL	first compound 0.06 µg/mL
[1], partner 85.5 µg/mL	0.941	0.866	–	0.798	–	–
[1], partner 171 µg/mL	0.931	0.838	–	0.814	–	–
[1], partner 342 µg/mL	0.931	0.788	–	0.856	–	–
[4], partner 85.5 µg/mL	–	–	0.916	–	0.713	0.349
[4], partner 171 µg/mL	–	–	0.956	–	0.766	0.513
[4], partner 342 µg/mL	–	–	0.806	–	0.716	0.373

fitness
Conditions	partner 85.5 µg/mL	partner 171 µg/mL	partner 342 µg/mL
[1], first compound 0.0625 µg/mL	0.504	0.483	0.506
[1], first compound 0.125 µg/mL	0.363	0.362	0.367
[1], first compound 0.25 µg/mL	0.344	0.335	0.339
[2], first compound 0.0625 µg/mL	0.196	–	–
[2], first compound 0.125 µg/mL	0.0583	0.0591	0.0589
[4], first compound 0.0125 µg/mL	0.772	0.723	0.746
[4], first compound 0.025 µg/mL	0.517	0.472	0.466
[4], first compound 0.05 µg/mL	0.205	0.186	0.19

Conditions	Bliss interaction score	fitness
[3]	–	0.706
[5]	-0.067	–
[6]	-0.0363	–
[7]	0.0552	–
[8]	-0.11	–
